From ChEMBL document CHEMBL1201862, “PubChem BioAssay data set” (2004)
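Exposure lasted 48 hours, with cells grown in 96-well plates and compounds tested at five concentrations. GI50 marks 50% less growth.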 Calls of active or inactive are those of the source. Rule as the data show it: active = GI50 up to about 1.1 µM and inactive = higher.

What was measured:
Test in all cases: inhibition of tumour cell growth, NCI panel, 48 h
[1] = test system: HOP-92
[2] = test system: DU-145
[3] = test system: MOLT-4
[4] = test system: UACC-257
[5] = test system: HOP-62
[6] = test system: SK-MEL-5
[7] = test system: Hs-578T
[8] = test system: RXF 393
[9] = test system: MDA-MB-231
[10] = test system: MCF7
[11] = test system: NCI-H522
[12] = test system: Malme-3M
[13] = test system: COLO 205
[14] = test system: NCI-H226
[15] = test system: OVCAR-5
[16] = test system: MDA-N
[17] = test system: ACHN
[18] = test system: KM12
[19] = test system: OVCAR-4
[20] = test system: SF-539

Structure (SMILES) | GI50 [1] | GI50 [2] | GI50 [3] | GI50 [4] | GI50 [5] | GI50 [6] | GI50 [7] | GI50 [8] | GI50 [9] | GI50 [10] | GI50 [11] | GI50 [12] | GI50 [13] | GI50 [14] | GI50 [15] | GI50 [16] | GI50 [17] | GI50 [18] | GI50 [19] | GI50 [20]
NCCN(CCN(C(=O)Nc1ccccc1)c1ccccc1)C(=O)Nc1ccccc1 | 17.4 µM (inactive) | 18.2 µM (inactive) | 35.5 µM (inactive) | 19 µM (inactive) | 16.7 µM (inactive) | 18.5 µM (inactive) | 19.2 µM (inactive) | 14.7 µM (inactive) | 39.1 µM (inactive) | 19.6 µM (inactive) | 19 µM (inactive) | 17.1 µM (inactive) | 23 µM (inactive) | 32.2 µM (inactive) | 19 µM (inactive) | 20.3 µM (inactive) | 20.5 µM (inactive) | – | – | –
C1=C\SS/C=C\SS/C=C\SS/C=C\SS/1 | 75.7 µM (inactive) | > 100 µM (inactive) | 42.3 µM (inactive) | 78.5 µM (inactive) | 69.7 µM (inactive) | 99.3 µM (inactive) | > 100 µM (inactive) | 80.9 µM (inactive) | > 100 µM (inactive) | 46.7 µM (inactive) | 15.2 µM (inactive) | 41.7 µM (inactive) | > 100 µM (inactive) | > 100 µM (inactive) | > 100 µM (inactive) | > 100 µM (inactive) | > 100 µM (inactive) | > 100 µM (inactive) | > 100 µM (inactive) | –
CN1CCN(C(=S)N(C(=O)c2ccc(Cl)cc2)c2ccccc2)CC1 | > 100 µM (inactive) | > 100 µM (inactive) | > 100 µM (inactive) | > 100 µM (inactive) | – | > 100 µM (inactive) | 34.5 µM (inactive) | > 100 µM (inactive) | > 100 µM (inactive) | > 100 µM (inactive) | > 100 µM (inactive) | > 100 µM (inactive) | > 100 µM (inactive) | > 100 µM (inactive) | > 100 µM (inactive) | > 100 µM (inactive) | > 100 µM (inactive) | > 100 µM (inactive) | > 100 µM (inactive) | –
COc1ccc(N)c(C(O)CCNC(C)=O)c1 (stereo not given) | > 100 µM (inactive) | > 100 µM (inactive) | > 100 µM (inactive) | > 100 µM (inactive) | – | > 100 µM (inactive) | > 100 µM (inactive) | > 100 µM (inactive) | > 100 µM (inactive) | > 100 µM (inactive) | > 100 µM (inactive) | – | > 100 µM (inactive) | > 100 µM (inactive) | > 100 µM (inactive) | > 100 µM (inactive) | > 100 µM (inactive) | > 100 µM (inactive) | > 100 µM (inactive) | > 100 µM (inactive)
c1ccc(C[n+]2cccc(-c3cc4ccccc4[nH]3)c2)cc1 | 16.4 µM (inactive) | 47.4 µM (inactive) | 21.5 µM (inactive) | 14.9 µM (inactive) | 31.8 µM (inactive) | 10.6 µM (inactive) | 20.2 µM (inactive) | > 100 µM (inactive) | 37.2 µM (inactive) | 27.6 µM (inactive) | 16.4 µM (inactive) | 14.6 µM (inactive) | 15 µM (inactive) | 31.2 µM (inactive) | 42.7 µM (inactive) | 19.1 µM (inactive) | > 100 µM (inactive) | 16.6 µM (inactive) | 40.2 µM (inactive) | –
CC(=O)Nc1ccc2c3c(cc(O)c2c1)N(C(=O)CCCC(=O)Nc1ccc2c4c(cc(O)c2c1)N(C(=O)OC(C)(C)C)CC4CCl)CC3CCl (stereo not given) | 2.01 µM (inactive) | 0.769 µM (active) | 0.0815 µM (active) | 1.04 µM (active) | 2.01 µM (inactive) | 1.1 µM (active) | 1.55 µM (inactive) | 2.58 µM (inactive) | 1.47 µM (inactive) | 0.225 µM (active) | 0.371 µM (active) | 0.78 µM (active) | 1.22 µM (inactive) | – | 2.3 µM (inactive) | 1.05 µM (active) | 5.22 µM (inactive) | 2.26 µM (inactive) | 1.44 µM (inactive) | 1.42 µM (inactive)
COc1ccc(OC/C(N)=N/NC(=O)c2ccncc2)cc1 | > 100 µM (inactive) | > 100 µM (inactive) | > 100 µM (inactive) | > 100 µM (inactive) | > 100 µM (inactive) | – | > 100 µM (inactive) | > 100 µM (inactive) | > 100 µM (inactive) | > 100 µM (inactive) | > 100 µM (inactive) | > 100 µM (inactive) | > 100 µM (inactive) | – | > 100 µM (inactive) | > 100 µM (inactive) | > 100 µM (inactive) | > 100 µM (inactive) | > 100 µM (inactive) | > 100 µM (inactive)
Nc1nc(Nc2ccc(Cl)cc2)sc1C(=O)c1cc2ccccc2oc1=O | 53.2 µM (inactive) | 74.6 µM (inactive) | – | 69.5 µM (inactive) | 12.9 µM (inactive) | 67.6 µM (inactive) | 27.2 µM (inactive) | 82.6 µM (inactive) | 37.8 µM (inactive) | 25 µM (inactive) | – | 19.1 µM (inactive) | 59.6 µM (inactive) | > 100 µM (inactive) | > 100 µM (inactive) | 37.3 µM (inactive) | > 100 µM (inactive) | 35.2 µM (inactive) | 27.7 µM (inactive) | 71.6 µM (inactive)
O=C1C[C@H](c2ccccc2)O[C@@H](c2ccccc2)C1 | > 100 µM (inactive) | > 100 µM (inactive) | 58.1 µM (inactive) | > 100 µM (inactive) | > 100 µM (inactive) | > 100 µM (inactive) | > 100 µM (inactive) | > 100 µM (inactive) | > 100 µM (inactive) | 74.3 µM (inactive) | – | > 100 µM (inactive) | > 100 µM (inactive) | > 100 µM (inactive) | > 100 µM (inactive) | > 100 µM (inactive) | – | > 100 µM (inactive) | > 100 µM (inactive) | > 100 µM (inactive)
CC/C=C/c1cc2c(cc1O)CCC1C2CC[C@@]2(C)C1CC[C@@H]2O (stereo not given in full) | 12 µM (inactive) | 2.76 µM (inactive) | 1.97 µM (inactive) | 10.4 µM (inactive) | – | 1.56 µM (inactive) | 1.65 µM (inactive) | 1.08 µM (active) | 3.53 µM (inactive) | 1.08 µM (active) | 0.475 µM (active) | 0.524 µM (active) | 14 µM (inactive) | 1.47 µM (inactive) | 12.5 µM (inactive) | 0.199 µM (active) | 2.14 µM (inactive) | 4.32 µM (inactive) | 19.9 µM (inactive) | –
O=C(CCc1cc(O)cc(O)c1)NCCc1ccc(O)c(O)c1 | > 100 µM (inactive) | > 100 µM (inactive) | > 100 µM (inactive) | > 100 µM (inactive) | > 100 µM (inactive) | > 100 µM (inactive) | > 100 µM (inactive) | > 100 µM (inactive) | > 100 µM (inactive) | > 100 µM (inactive) | > 100 µM (inactive) | – | > 100 µM (inactive) | > 100 µM (inactive) | > 100 µM (inactive) | 36.7 µM (inactive) | > 100 µM (inactive) | > 100 µM (inactive) | – | > 100 µM (inactive)
